Results from patent US10544150B2, “NK-3 receptor selective antagonist compounds, pharmaceutical composition and methods for use in NK-3 receptors mediated disorders” (Ogeda SA, priority 2010, dated 2020).

Target: human NK-3 receptor (Homo sapiens (Human), UniProt P29371)
Experiment: 3H-SB222200 binding competition assay with human NK-3 receptor
Conditions: 3H-SB222200 displacement, CHO cell membranes expressing human NK3 receptor; read-out: Ki range
Outline: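 Radioligand displacement: 5 nM tritiated SB222200 competed by varying compound concentrations on recombinant CHO membranes bearing human NK3, buffer pH 7.4 with HEPES, NaCl, CaCl2, MgCl2, BSA and saponin. Filter-bound radioactivity quantified; calculated Ki given as ranges from +++ (<500 nM) to # (>5 μM).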

human NK-3 receptor, sequence (P29371 whole entry): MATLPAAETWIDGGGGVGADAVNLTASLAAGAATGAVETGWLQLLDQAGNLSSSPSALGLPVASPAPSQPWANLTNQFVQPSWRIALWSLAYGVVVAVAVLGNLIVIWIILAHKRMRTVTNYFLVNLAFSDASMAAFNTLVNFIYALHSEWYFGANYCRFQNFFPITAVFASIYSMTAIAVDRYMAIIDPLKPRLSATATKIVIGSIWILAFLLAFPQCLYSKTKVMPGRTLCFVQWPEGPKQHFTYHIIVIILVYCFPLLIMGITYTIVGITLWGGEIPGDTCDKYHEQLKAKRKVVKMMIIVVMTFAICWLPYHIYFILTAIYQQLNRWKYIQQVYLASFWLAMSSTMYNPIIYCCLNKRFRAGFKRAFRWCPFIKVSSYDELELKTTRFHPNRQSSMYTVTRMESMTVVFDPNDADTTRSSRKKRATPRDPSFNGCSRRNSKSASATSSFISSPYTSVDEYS

Ki [µM]	Structure (SMILES)
< 0.5	O=C(c1ccc(-c2cccs2)cc1)N1CCn2c(nnc2-c2csc(-c3ccc4ccccc4n3)n2)C1 [Compound 219, (3-(2-(quinolin-2-yl)thiazol-4-yl)-5,6-dihydro-[1,2,4]triazolo[4,3-a]pyrazin-7(8H)-yl)(4-(thiophen-2-yl)phenyl)methanone]
1 to 5	O=C(c1cc(-c2ccc(Cl)cc2Cl)n[nH]1)N1CCn2c(nnc2-c2ccccn2)C1 [Compound 13, (3-(2,4-dichlorophenyl)-1H-pyrazol-5-yl)(3-(pyridin-2-yl)-5,6-dihydro-[1,2,4]triazolo[4,3-a]pyrazin-7(8H)-yl)methanone]
< 0.5	O=C(c1ccc(F)cc1)N1CCn2c(nnc2-c2csc(N3CCCC3)n2)C1 [Compound 249, (4-fluorophenyl)(3-(2-(pyrrolidin-1-yl)thiazol-4-yl)-5,6-dihydro-[1,2,4]triazolo[4,3-a]pyrazin-7(8H)-yl)methanone]
1 to 5	O=C(c1ccc(-c2cccs2)cc1)N1CCn2c(nnc2-c2csc(CS(=O)(=O)c3ccc(Cl)cc3)n2)C1 [Compound 198, (3-(2-(((4-chlorophenyl)sulfonyl)methyl)thiazol-4-yl)-5,6-dihydro-[1,2,4]triazolo[4,3-a]pyrazin-7(8H)-yl)(4-(thiophen-2-yl)phenyl)methanone]
< 0.5	O=C(c1ccc(F)cc1)N1CCn2c(nnc2-c2nc3ccccc3s2)C1 [Compound 59, (3-(benzo[d]thiazol-2-yl)-5,6-dihydro-[1,2,4]triazolo[4,3-a]pyrazin-7(8H)-yl)(4-fluorophenyl)methanone]
< 0.5	CC1c2nnc(-c3csc(-c4ccc(F)cc4F)n3)n2CCN1C(=O)c1ccc(F)cc1 (centres unmarked) [Compound 77, (3-(2-(2,4-difluorophenyl)thiazol-4-yl)-8-methyl-5,6-dihydro-[1,2,4]triazolo[4,3-a]pyrazin-7(8H)-yl)(4-fluorophenyl)methanone]
1 to 5	O=C(c1cc(-c2ccc(C(F)(F)F)cc2)n[nH]1)N1CCn2c(nnc2-c2ccccn2)C1 [Compound 17, (3-(pyridin-2-yl)-5,6-dihydro-[1,2,4]triazolo[4,3-a]pyrazin-7(8H)-yl)(3-(4-(trifluoromethyl)phenyl)-1H-pyrazol-5-yl)methanone]
0.5 to 1	C[C@H]1c2nnc(-c3ccc4ccccc4n3)n2CCN1C(=O)c1ccc(-c2cccs2)cc1 [Compound 163, (S)-(8-methyl-3-(quinolin-2-yl)-5,6-dihydro-[1,2,4]triazolo[4,3-a]pyrazin-7(8H)-yl)(4-(thiophen-2-yl)phenyl)methanone]
< 0.5	O=C(c1ccc(-c2ccccc2)cc1)N1CCn2c(nnc2-c2csc(-c3cccs3)n2)C1 [Compound 195, [1,1′-biphenyl]-4-yl(3-(2-(thiophen-2-yl)thiazol-4-yl)-5,6-dihydro-[1,2,4]triazolo[4,3-a]pyrazin-7(8H)-yl)methanone]
1 to 5	O=C(c1ccc(F)cc1)N1CCn2c(nnc2-c2csc(-c3ccccn3)n2)C1 [Compound 230, (4-fluorophenyl)(3-(2-(pyridin-2-yl)thiazol-4-yl)-5,6-dihydro-[1,2,4]triazolo[4,3-a]pyrazin-7(8H)-yl)methanone]
1 to 5	C[C@@H]1c2nnc(-c3ccccn3)n2CCN1C(=O)c1ccc(F)cc1 [Compound 44, (R)-(4-fluorophenyl)(8-methyl-3-(pyridin-2-yl)-5,6-dihydro-[1,2,4]triazolo[4,3-a]pyrazin-7(8H)-yl)methanone]
1 to 5	O=C(c1ccc(F)cc1)N1CCn2c(nnc2-c2csc(-c3cccc(F)c3)n2)C1 [Compound 206, (4-fluorophenyl)(3-(2-(3-fluorophenyl)thiazol-4-yl)-5,6-dihydro-[1,2,4]triazolo[4,3-a]pyrazin-7(8H)-yl)methanone]
0.5 to 1	C[C@H]1c2nnc(-c3csc(-c4ccccc4)n3)n2CCN1C(=O)c1ccc(F)cc1 [Compound 167, (S)-(4-fluorophenyl)(8-methyl-3-(2-phenylthiazol-4-yl)-5,6-dihydro-[1,2,4]triazolo[4,3-a]pyrazin-7(8H)-yl)methanone]
> 5	O=C(c1ccc(-c2cccs2)cc1)N1CCn2c(nnc2-c2csc(-c3ncccn3)n2)C1 [Compound 226, (3-(2-(pyrimidin-2-yl)thiazol-4-yl)-5,6-dihydro-[1,2,4]triazolo[4,3-a]pyrazin-7(8H)-yl)(4-(thiophen-2-yl)phenyl)methanone]
< 0.5	COc1ccccc1-c1nc(-c2nnc3n2CCN(C(=O)c2ccc(-c4cccs4)cc2)C3)cs1 [Compound 202, (3-(2-(2-methoxyphenyl)thiazol-4-yl)-5,6-dihydro-[1,2,4]triazolo[4,3-a]pyrazin-7(8H)-yl)(4-(thiophen-2-yl)phenyl)methanone]
< 0.5	CC1c2nnc(-c3csc(-c4ccc(F)cc4F)n3)n2CCN1C(=O)c1ccc(-c2cccs2)cc1 (centres unmarked) [Compound 80, (3-(2-(2,4-difluorophenyl)thiazol-4-yl)-8-methyl-5,6-dihydro-[1,2,4]triazolo[4,3-a]pyrazin-7(8H)-yl)(4-(thiophen-2-yl)phenyl)methanone]

Ki [µM]	Structure (SMILES)
< 0.5	CC1(C)c2nnc(-c3csc(-c4ccccc4)n3)n2CCN1C(=O)c1ccc(F)cc1 [Compound 60, (8,8-dimethyl-3-(2-phenylthiazol-4-yl)-5,6-dihydro-[1,2,4]triazolo[4,3-a]pyrazin-7(8H)-yl)(4-fluorophenyl)methanone]
< 0.5	O=C(c1ccc(F)cc1)N1CCn2c(nnc2-c2csc(-c3cccs3)n2)C1 [Compound 193, (4-fluorophenyl)(3-(2-(thiophen-2-yl)thiazol-4-yl)-5,6-dihydro-[1,2,4]triazolo[4,3-a]pyrazin-7(8H)-yl)methanone]
0.5 to 1	O=C(c1ccc(F)cc1)N1CCn2c(nnc2-c2cc(-c3ccccc3)n[nH]2)C1 [Compound 269, (4-fluorophenyl)(3-(3-phenyl-1H-pyrazol-5-yl)-5,6-dihydro-[1,2,4]triazolo[4,3-a]pyrazin-7(8H)-yl)methanone]
1 to 5	O=C(c1ccc(Cl)cc1)N1CCn2c(nnc2-c2ccccn2)C1 [Compound 2, (4-chlorophenyl)(3-(pyridin-2-yl)-5,6-dihydro-[1,2,4]triazolo[4,3-a]pyrazin-7(8H)-yl)methanone]
< 0.5	O=C(c1ccc(-c2cccs2)cc1)N1CCn2c(nnc2-c2nc(-c3ccc(F)cc3F)no2)C1 [Compound 177, (3-(3-(2,4-difluorophenyl)-1,2,4-oxadiazol-5-yl)-5,6-dihydro-[1,2,4]triazolo[4,3-a]pyrazin-7(8H)-yl)(4-(thiophen-2-yl)phenyl)methanone]
< 0.5	O=C(c1ccc(F)cc1)N1CCn2c(nnc2-c2nc(-c3ccc(F)cc3)no2)C1 [Compound 175, (4-fluorophenyl)(3-(3-(4-fluorophenyl)-1,2,4-oxadiazol-5-yl)-5,6-dihydro-[1,2,4]triazolo[4,3-a]pyrazin-7(8H)-yl)methanone]
< 0.5	O=C(c1ccc(-c2cccs2)cc1)N1CCn2c(nnc2-c2nc(-c3ccc(F)cc3)no2)C1 [Compound 176, (3-(3-(4-fluorophenyl)-1,2,4-oxadiazol-5-yl)-5,6-dihydro-[1,2,4]triazolo[4,3-a]pyrazin-7(8H)-yl)(4-(thiophen-2-yl)phenyl)methanone]
< 0.5	Cc1cccc(-c2nnc3n2CCN(C(=O)c2ccc(-c4cccs4)cc2)C3C)n1 (centres unmarked) [Compound 287, (8-methyl-3-(6-methylpyridin-2-yl)-5,6-dihydro-[1,2,4]triazolo[4,3-a]pyrazin-7(8H)-yl)(4-(thiophen-2-yl)phenyl)methanone]
< 0.5	O=C(c1ccc(F)cc1)N1CCn2c(nnc2-c2coc(-c3ccccc3)n2)C1 [Compound 47, (4-fluorophenyl)(3-(2-phenyloxazol-4-yl)-5,6-dihydro-[1,2,4]triazolo[4,3-a]pyrazin-7(8H)-yl)methanone]
< 0.5	O=C(c1ccc(-c2cccs2)cc1)N1CCn2c(nnc2-c2csc(-c3ccccc3OCCO)n2)C1 [Compound 281, (3-(2-(2-(2-hydroxyethoxy)phenyl)thiazol-4-yl)-5,6-dihydro-[1,2,4]triazolo[4,3-a]pyrazin-7(8H)-yl)(4-(thiophen-2-yl)phenyl)methanone]
< 0.5	O=C(c1ccc(-c2cccs2)cc1)N1CCn2c(nnc2-c2csc(-c3ccccc3F)n2)C1 [Compound 181, (3-(2-(2-fluorophenyl)thiazol-4-yl)-5,6-dihydro-[1,2,4]triazolo[4,3-a]pyrazin-7(8H)-yl)(4-(thiophen-2-yl)phenyl)methanone]
< 0.5	CC1c2nnc(-c3csc(-c4ccc(F)cc4F)n3)n2CCN1C(=O)c1ccc(-c2ccccc2)cc1 (centres unmarked) [Compound 79, [1,1′-biphenyl]-4-yl(3-(2-(2,4-difluorophenyl)thiazol-4-yl)-8-methyl-5,6-dihydro-[1,2,4]triazolo[4,3-a]pyrazin-7(8H)-yl)methanone]
< 0.5	Cc1cccc(-c2nnc3n2CCN(C(=O)c2ccc(F)cc2)C3)n1 [Compound 11, (4-fluorophenyl)(3-(6-methylpyridin-2-yl)-5,6-dihydro-[1,2,4]triazolo[4,3-a]pyrazin-7(8H)-yl)methanone]
< 0.5	C[C@H]1c2nnc(-c3csc(-c4ccc(F)cc4)n3)n2CCN1C(=O)c1ccc(F)cc1 [Compound 164, (S)-(4-fluorophenyl)(3-(2-(4-fluorophenyl)thiazol-4-yl)-8-methyl-5,6-dihydro-[1,2,4]triazolo[4,3-a]pyrazin-7(8H)-yl)methanone]
< 0.5	CC1c2nnc(-c3csc(N4CCOCC4)n3)n2CCN1C(=O)c1ccc(-c2cccs2)cc1 (centres unmarked) [Compound 56, (8-methyl-3-(2-morpholinothiazol-4-yl)-5,6-dihydro-[1,2,4]triazolo[4,3-a]pyrazin-7(8H)-yl)(4-(thiophen-2-yl)phenyl)methanone]
< 0.5	CC1c2nnc(-c3nc(-c4ccc(F)cc4)no3)n2CCN1C(=O)c1ccc(-c2cccs2)cc1 (centres unmarked) [Compound 209, (3-(3-(4-fluorophenyl)-1,2,4-oxadiazol-5-yl)-8-methyl-5,6-dihydro-[1,2,4]triazolo[4,3-a]pyrazin-7(8H)-yl)(4-(thiophen-2-yl)phenyl)methanone]
